Experiments:
[1] = test system: TSDzyme (out) (DNA, G4) GGGTAGGGCGGGTTGGGCAGTTGAGACGAACATTCCTAAGTCTGAAATTTATCACCCGCCATAGTAGACGTATCACCAGG/CTTGCTACACGATTCAGACTTAGGAATGTTCGACATGCGAGGGTCCAATACCGACGATTACAG/GGTGATAAAACGTGTAGCAAGCTGTAATCGACGGGAAGAGCATGCCCATCCACTACTATGGCG/CCTCGCATGACTCAACTGCCTGGTGATACGAGGATGGGCATGCTCTTCCCGACGGTATTGGAC; assay: hemin absorbance at 404 nm vs DNA concentration; conditions: K+ 20 mM KAc, 70 mM KCl (assumed KAc buffer)
[2] = test system: Hairpin-based allosteric TSDzyme (DNA, G4) AGGCAGTTGAGACGAACATTCCTAAGTCTGAAATTTATCACCCGCCATAGTAGACGTATCACC/CTTGCTACACGATTCAGACTTAGGAATGTTCGACATGCGAGGGTCCAATACCGACGATTACAG/GGTGATAAAACGTGTAGCAAGCTGTAATCGACTCTAGCGGAAGAACCCACAACCGCGGCTCACTACTATGGCG/GGGTAGGGCGGGTTGGGTTAGAGACGGTATTGGACCCTCGCATGACTCAACTGCCTGGTGATACGAGAGCCTGGGTAGGGCGGGTTGGG; conditions: K+ 20 mM KAc, 70 mM KCl (assumed KAc buffer)
[3] = test system: ATP-based allosteric TSDzyme (DNA, G4) AGGCAGTTGAGACGAACATTCCTAAGTCTGAAATTTATCACCCGCCATAGTAGACGTATCACC/CTTGCTACACGATTCAGACTTAGGAATGTTCGACATGCGAGGGTCCAATACCGACGATTACAG/GGTGATAAAACGTGTAGCAAGCTGTAATCGACTCTAACCTGGGGGAGTATTGCGGAGGAAGGTGGCTCACTACTATGGCG/GGGTAGGGCGGGTTGGGTTAGAGACGGTATTGGACCCTCGCATGACTCAACTGCCTGGTGATACGAGAGCCTGGGTAGGGCGGGTTGGG; assay: free energy of hemin/G-quadruplex complex formation
[4] = test system: 15 bp Bi-quadruplex (DNA, G4) GGGTAGGGCGGGTTGGGTTTTTTTTTTTTTTTGGGTAGGGCGGGTTGGG; conditions: K+ 20 mM KAc, 70 mM KCl (assumed KAc buffer)
[5] = test system: TSDzyme (out) (DNA, G4) GGGTAGGGCGGGTTGGGCAGTTGAGACGAACATTCCTAAGTCTGAAATTTATCACCCGCCATAGTAGACGTATCACCAGG/CTTGCTACACGATTCAGACTTAGGAATGTTCGACATGCGAGGGTCCAATACCGACGATTACAG/GGTGATAAAACGTGTAGCAAGCTGTAATCGACGGGAAGAGCATGCCCATCCACTACTATGGCG/CCTCGCATGACTCAACTGCCTGGTGATACGAGGATGGGCATGCTCTTCCCGACGGTATTGGAC; assay: free energy of hemin/G-quadruplex complex formation
[6] = test system: TSDzyme (in) (DNA, G4) GGGTAGGGCGGGTTGGGCCAGGCAGTTGAGACGAACATTCCTAAGTCTGAAATTTATCACCCGCCATAGTAGACGTATCA/CTTGCTACACGATTCAGACTTAGGAATGTTCGACATGCGAGGGTCCAATACCGACGATTACAG/GGTGATAAAACGTGTAGCAAGCTGTAATCGACGGGAAGAGCATGCCCATCCACTACTATGGCG/CCTCGCATGACTCAACTGCCTGGTGATACGAGGATGGGCATGCTCTTCCCGACGGTATTGGAC; assay: hemin absorbance at 404 nm vs DNA concentration; conditions: K+ 20 mM KAc, 70 mM KCl (assumed KAc buffer)
[7] = test system: G-quadruplex (free hemin-G) (DNA, G4) GGGTAGGGCGGGTTGGG; assay: free energy of hemin/G-quadruplex complex formation
[8] = test system: 5 bp Bi-quadruplex (DNA, G4) GGGTAGGGCGGGTTGGGTTTTTGGGTAGGGCGGGTTGGG; conditions: K+ 20 mM KAc, 70 mM KCl (assumed KAc buffer)
[9] = test system: Hairpin-based allosteric TSDzyme (DNA, G4) AGGCAGTTGAGACGAACATTCCTAAGTCTGAAATTTATCACCCGCCATAGTAGACGTATCACC/CTTGCTACACGATTCAGACTTAGGAATGTTCGACATGCGAGGGTCCAATACCGACGATTACAG/GGTGATAAAACGTGTAGCAAGCTGTAATCGACTCTAGCGGAAGAACCCACAACCGCGGCTCACTACTATGGCG/GGGTAGGGCGGGTTGGGTTAGAGACGGTATTGGACCCTCGCATGACTCAACTGCCTGGTGATACGAGAGCCTGGGTAGGGCGGGTTGGG; assay: free energy of hemin/G-quadruplex complex formation
[10] = test system: G-quadruplex (free hemin-G) (DNA, G4) GGGTAGGGCGGGTTGGG; assay: hemin absorbance at 404 nm vs DNA concentration; conditions: K+ 20 mM KAc, 70 mM KCl (assumed KAc buffer)
[11] = test system: ATP-based allosteric TSDzyme (DNA, G4) AGGCAGTTGAGACGAACATTCCTAAGTCTGAAATTTATCACCCGCCATAGTAGACGTATCACC/CTTGCTACACGATTCAGACTTAGGAATGTTCGACATGCGAGGGTCCAATACCGACGATTACAG/GGTGATAAAACGTGTAGCAAGCTGTAATCGACTCTAACCTGGGGGAGTATTGCGGAGGAAGGTGGCTCACTACTATGGCG/GGGTAGGGCGGGTTGGGTTAGAGACGGTATTGGACCCTCGCATGACTCAACTGCCTGGTGATACGAGAGCCTGGGTAGGGCGGGTTGGG; conditions: K+ 20 mM KAc, 70 mM KCl (assumed KAc buffer)
[12] = test system: TSDzyme (in) (DNA, G4) GGGTAGGGCGGGTTGGGCCAGGCAGTTGAGACGAACATTCCTAAGTCTGAAATTTATCACCCGCCATAGTAGACGTATCA/CTTGCTACACGATTCAGACTTAGGAATGTTCGACATGCGAGGGTCCAATACCGACGATTACAG/GGTGATAAAACGTGTAGCAAGCTGTAATCGACGGGAAGAGCATGCCCATCCACTACTATGGCG/CCTCGCATGACTCAACTGCCTGGTGATACGAGGATGGGCATGCTCTTCCCGACGGTATTGGAC; assay: free energy of hemin/G-quadruplex complex formation
[13] = test system: 10 bp Bi-quadruplex (DNA, G4) GGGTAGGGCGGGTTGGGTTTTTTTTTTGGGTAGGGCGGGTTGGG; conditions: K+ 20 mM KAc, 70 mM KCl (assumed KAc buffer)
[14] = test system: ATP-based allosteric TSDzyme (DNA, G4) AGGCAGTTGAGACGAACATTCCTAAGTCTGAAATTTATCACCCGCCATAGTAGACGTATCACC/CTTGCTACACGATTCAGACTTAGGAATGTTCGACATGCGAGGGTCCAATACCGACGATTACAG/GGTGATAAAACGTGTAGCAAGCTGTAATCGACTCTAACCTGGGGGAGTATTGCGGAGGAAGGTGGCTCACTACTATGGCG/GGGTAGGGCGGGTTGGGTTAGAGACGGTATTGGACCCTCGCATGACTCAACTGCCTGGTGATACGAGAGCCTGGGTAGGGCGGGTTGGG; assay: allosteric change of peroxidase activity; conditions: 0.5 mM ATP

Compound | KD [1] [µM] | KD [2] [µM] | -ΔGtetra [3] [kJ/mol] | KD [4] [µM] | -ΔGtetra [5] [kJ/mol] | KD [6] [µM] | -ΔGfree [7] [kJ/mol] | KD [8] [µM] | -ΔGtetra [9] [kJ/mol] | KD [10] [µM] | KD [11] [µM] | -ΔGtetra [12] [kJ/mol] | KD [13] [µM] | binding [14]
C=CC1=C(C)C2=Cc3c(C=C)c(C)c4[n]3[Fe]([Cl])[n]3c(c(C)c(CCC(=O)O)c3=CC3=NC(=C4)C(C)=C3CCC(=O)O)=CC1=N2 | 0.75 ± 0.23 | 0.50 ± 0.15 | 36.2 ± 0.9 | 1.3 ± 0.4 | 34.9 ± 0.7 | 0.70 ± 0.14 | 32.3 ± 0.6 | 1.2 ± 0.2 | 35.9 ± 0.7 | 2.2 ± 0.5 | 0.45 ± 0.17 | 35.1 ± 0.5 | 1.3 ± 0.2 | 
Nc1ncnc2c1ncn2[C@@H]1O[C@H](COP(=O)(O)OP(=O)(O)OP(=O)(O)O)[C@@H](O)[C@H]1O |  |  |  |  |  |  |  |  |  |  |  |  |  | yes

From article PMC5975834 (2015)
